The results in this text go back to US4393228A, “Epoxysuccinic acid derivatives” (Taisho Pharmaceutical Co., Ltd., priority 1977, dated 1983).

SMILES strings stand for the structures. Where a name gives a salt, the structure may show the parent alone.

The test has as its target T1, papain (Carica papaya, UniProt P00784).
T1 construct: purchased Sigma Chem. Co
T1 sequence (P00784 134-345): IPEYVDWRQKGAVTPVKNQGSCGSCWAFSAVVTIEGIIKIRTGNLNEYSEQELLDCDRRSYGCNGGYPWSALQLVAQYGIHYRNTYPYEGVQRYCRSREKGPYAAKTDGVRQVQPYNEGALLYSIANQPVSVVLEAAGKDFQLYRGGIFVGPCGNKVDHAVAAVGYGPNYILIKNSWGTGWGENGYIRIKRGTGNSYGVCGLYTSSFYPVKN
In words: Papain inhibitory activity (milk casein digestion). It counts as biochemical. The note with it: papain 80 μg/ml 0.5 ml, cysteine, pH 6.8, 1% milk casein, 40° C., 10 minutes. In a few lines: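 Papain (80 μg/ml stock) preincubated 15 min at 40 °C with inhibitor, cysteine/EDTA activator and phosphate buffer pH 6.8. Then 1% milk casein digested 10 min at 40 °C, stopped with trichloroacetic acid and filtered; filtrate absorbance at 280 nm gives percent inhibition versus no-inhibitor control.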
For the compound `CCOC(=O)C1OC1C(=O)N[C@H](C(=O)OCc1ccccc1)C(C)C` (stereo partly drawn) [EP-158, N-(3-ethoxycarbonyloxirane-2-carbonyl)-L-valine benzyl ester], the “ID50 (amount of inhibitor for 50% inhibition)” value is recorded as 3.47 γ.

On to `CCOC(=O)[C@H](Cc1ccccc1)NC(=O)C1OC1C(=O)OCc1ccccc1` (stereo partly drawn) [EP-159, N-(3-benzyloxycarbonyloxirane-2-carbonyl)-L-phenylalanine ethyl ester], for which the “ID50 (amount of inhibitor for 50% inhibition)” value is recorded as 0.27 γ.

Turning to `CCOC(=O)[C@H](Cc1ccccc1)NC(=O)C1OC1C(=O)OCc1ccccc1Cl` (stereo partly drawn) [EP-160, N-(3-o-chlorobenzyloxycarbonyloxirane-2-carbonyl)-L-phenylalanine ethyl ester], the “ID50 (amount of inhibitor for 50% inhibition)” value is reported as 0.30 γ. As to `CC(C)[C@H](NC(=O)C1OC1C(=O)OCc1ccc(Br)cc1)C(=O)OCc1ccccc1` (stereo partly drawn) [EP-162, N-(3-p-bromobenzyloxycarbonyloxirane-2-carbonyl)-L-valine benzyl ester], the “ID50 (amount of inhibitor for 50% inhibition)” value is given as 0.80 γ.

With `CCOC(=O)C1OC1C(=O)N[C@@H](CCCCNC(=O)OCc1ccccc1)C(=O)OCc1ccccc1` (stereo partly drawn) [EP-163, N^α -(3-ethoxycarbonyloxirane-2-carbonyl)-N^ε -carbobenzoxy-L-lysine benzyl ester], the “ID50 (amount of inhibitor for 50% inhibition)” value is 29.07 γ. For the compound `C=CCOC(=O)C1OC1C(=O)N[C@@H](CCCCNC(=O)OCc1ccccc1)C(=O)OCc1ccccc1` (stereo partly drawn) [EP-164, N^α -(3-allyloxycarbonyloxirane-2-carbonyl)-N^ε -carbobenzoxy-L-lysine benzyl ester], the “ID50 (amount of inhibitor for 50% inhibition)” value is given as 20.49 γ. On to `C#CCOC(=O)C1OC1C(=O)N[C@@H](CCCCNC(=O)OCc1ccccc1)C(=O)OCc1ccccc1` (stereo partly drawn) [EP-165, N^α -(3-propargyloxycarbonyloxirane-2-carbonyl)-N^ε -carbobenzoxy-L-lysine benzyl ester], for which the “ID50 (amount of inhibitor for 50% inhibition)” value was 22.50 γ. As for `CCOC(=O)[C@H](CC(C)C)NC(=O)C1OC1C(=O)OC` (stereo partly drawn) [EP-166, N-(3-methoxycarbonyloxirane-2-carbonyl)-L-leucine ethyl ester], the figure is 0.67 γ. `CCOC(=O)C1OC1C(=O)N[C@@H](CC(C)C)C(N)=O` (stereo partly drawn) [EP-167, N-(3-ethoxycarbonyloxirane-2-carbonyl)-L-leucine amide]: the “ID50 (amount of inhibitor for 50% inhibition)” value is given as 0.50 γ.

Consider `CCOC(=O)C1OC1C(=O)N[C@@H](CCC(N)=O)C(=O)OCc1ccccc1` (stereo partly drawn) [EP-168, N-(3-ethoxycarbonyloxirane-2-carbonyl)-L-glutamine benzyl ester], for which the “ID50 (amount of inhibitor for 50% inhibition)” value is 12.50 γ. As to `CCOC(=O)C1OC1C(=O)N[C@@H](CCCCNC(=O)OCc1ccc(OC)cc1)C(=O)OCc1ccccc1` (stereo partly drawn) [EP-169, N^α -(3-ethoxycarbonyloxirane-2-carbonyl)-N^ε -p-methoxybenzyloxycarbonyl-L-lysine benzyl ester], the “ID50 (amount of inhibitor for 50% inhibition)” value was 26.50 γ.

As to `CCOC(=O)C1OC1C(=O)N[C@@H](CCCCNC(=O)OC(C)(C)C)C(=O)OCc1ccccc1` (stereo partly drawn) [EP-170, N^α -(3-ethoxycarbonyloxirane-2-carbonyl)-N^ε -t-butyloxycarbonyl-L-lysine benzyl ester], the “ID50 (amount of inhibitor for 50% inhibition)” value was 27.50 γ.

As for `O=CNCCCC[C@H](NC(=O)C1OC1C(=O)OCc1ccccc1)C(=O)OCc1ccccc1` (some centres unmarked) [EP-171], the “ID50 (amount of inhibitor for 50% inhibition)” value was 5.80 γ. For `CCOC(=O)C1OC1C(=O)N[C@@H](CCCNC(C)=O)C(=O)OCc1ccccc1` (stereo partly drawn) [EP-172, N^α -(3-ethoxycarbonyloxirane-2-carbonyl)-N^δ -acetyl-L-ornithine benzyl ester], the “ID50 (amount of inhibitor for 50% inhibition)” value was 6.20 γ. As to `CCOC(=O)C1OC1C(=O)N[C@@H](CCCNC(=O)c1ccccc1)C(=O)OCc1ccccc1` (stereo partly drawn) [EP-173, N^α -(3-ethoxycarbonyloxirane-2-carbonyl)-N^δ -benzoyl-L-ornithine benzyl ester], the “ID50 (amount of inhibitor for 50% inhibition)” value was 5.80 γ.

As to `O=C(NCCCC[C@H](NC(=O)C1OC1C(=O)O)C(=O)O)OCc1ccccc1` (stereo partly drawn) [EP-176, N-(3-carboxyoxirane-2-carbonyl)-N-carbobenzoxy-L-lysine dipotassium salt], the “ID50 (amount of inhibitor for 50% inhibition)” value was 1.06 γ.

As to `O=C(O)C1OC1C(=O)N[C@@H](Cc1c[nH]c2ccccc12)C(=O)O` (stereo partly drawn) [EP-177, N-(3-carboxyoxirane-2-carbonyl)-L-tryptophan], the “ID50 (amount of inhibitor for 50% inhibition)” value is recorded as 1.50 γ.

In the case of `N=C(NCCC[C@H](NC(=O)C1OC1C(=O)OCc1ccccc1)C(=O)OCc1ccccc1)N[N+](=O)[O-]` (stereo partly drawn) [EP-178, N-(3-benzyloxycarbonyloxirane-2-carbonyl)-N^G -nitro-L-arginine benzyl ester], the “ID50 (amount of inhibitor for 50% inhibition)” value is given as 4.63 γ.

As to `CC(C)OC(=O)C1OC1C(=O)N[C@@H](CCCCNC(=O)OCc1ccccc1)C(=O)OCc1ccccc1` (stereo partly drawn) [EP-180, N^α -(3-iso-propyloxycarbonyloxirane-2-carbonyl)-N^ε -carbobenzoxy-L-lysine benzyl ester], the “ID50 (amount of inhibitor for 50% inhibition)” value is 9.76 γ. Turning to `Cc1ccc(COC(=O)C2OC2C(=O)N[C@@H](CCCCNC(=O)OCc2ccccc2)C(=O)OCc2ccccc2)cc1` (stereo partly drawn) [EP-181, N^α -(3-p-methylbenzyloxycarbonyloxirane-2-carbonyl)-N^ε -carbobenzoxy-L-lysine benzyl ester], the “ID50 (amount of inhibitor for 50% inhibition)” value was 6.59 γ. Consider `O=C(NCCC[C@H](NC(=O)C1OC1C(=O)OCc1ccccc1)C(=O)OCc1ccccc1)OCc1ccccc1` (stereo partly drawn) [EP-182, N^α -(3-benzyloxycarbonyloxirane-2-carbonyl)-N^δ -carbobenzoxy-L-ornithine benzyl ester], for which the “ID50 (amount of inhibitor for 50% inhibition)” value is 5.95 γ.

`CCCCOC(=O)C1OC1C(=O)N[C@@H](CCCNC(=O)OCc1ccccc1)C(=O)OCc1ccccc1` (stereo partly drawn) [EP-183, N^α -(3-n-buthoxycarbonyloxirane-2-carbonyl)-N^δ -carbobenzoxy-L-ornithine benzyl ester]: the “ID50 (amount of inhibitor for 50% inhibition)” value was 4.46 γ.

As for `COC(=O)[C@H](CCCNC(=N)N[N+](=O)[O-])NC(=O)C1OC1C(=O)OCc1ccccc1` (stereo partly drawn) [EP-184, N^α -(3-benzyloxycarbonyloxirane-2-carbonyl)-N^G -nitro-L-arginine methyl ester], the “ID50 (amount of inhibitor for 50% inhibition)” value is given as 2.91 γ. On to `CCOC(=O)C1OC1C(=O)N[C@@H](Cc1c[nH]cn1)C(=O)OC` (stereo partly drawn) [EP-185, N^α -(3-ethoxycarbonyloxirane-2-carbonyl)-L-histidine methyl ester], for which the “ID50 (amount of inhibitor for 50% inhibition)” value is on record as 14.05 γ. With `CCOC(=O)C1OC1C(=O)N[C@@H](CO)C(=O)OCC` (stereo partly drawn) [EP-186, N^α -(3-ethoxycarbonyloxirane-2-carbonyl)-L-serine ethyl ester] the figure was 23.15 γ.

As to `O=C(NCCCC[C@H](NC(=O)C1OC1C(=O)OCCc1ccccc1)C(=O)OCc1ccccc1)OCc1ccccc1` (stereo partly drawn) [EP-187, N^α -(3-phenethyloxycarbonyloxirane-2-carbonyl)-N^ε -carbobenzoxy-L-lysine benzyl ester], the “ID50 (amount of inhibitor for 50% inhibition)” value is reported as 1.40 γ. Consider `O=C(NCCCC[C@H](NC(=O)C1OC1C(=O)OCCCc1ccccc1)C(=O)OCc1ccccc1)OCc1ccccc1` (stereo partly drawn) [EP-188, N^α -[3-(3'-phenylpropyloxy)-carbonyloxirane-2-carbonyl]-N^ε -carbobenzoxy-L-lysine benzyl ester], for which the “ID50 (amount of inhibitor for 50% inhibition)” value is listed as 1.86 γ.

Turning to `CCOC(=O)[C@@H](NC(=O)C1OC1C(=O)OC)[C@@H](C)O` (stereo partly drawn) [EP-190, N-(3-methoxycarbonyloxirane-2-carbonyl)-L-threonine ethyl ester], the “ID50 (amount of inhibitor for 50% inhibition)” value is 17.13 γ.

`O=C(N[C@@H](CSCc1ccccc1)C(=O)OCc1ccccc1)C1OC1C(=O)OCc1ccccc1` (stereo partly drawn) [EP-191, N-(3-benzyloxycarbonyloxirane-2-carbonyl)-S-benzyl-L-cysteine benzyl ester]: the “ID50 (amount of inhibitor for 50% inhibition)” value is 5.51 γ. For the compound `CCOC(=O)C1OC1C(=O)N[C@@H](C)C(=O)OC(C)(C)C` (stereo partly drawn) [EP-192, N-(3-ethoxycarbonyloxirane-2-carbonyl)-L-alanine-t-butyl ester], the “ID50 (amount of inhibitor for 50% inhibition)” value was 40.50 γ. Consider `CCOC(=O)C1OC1C(=O)N[C@@H](CC(=O)OCc1ccccc1)C(=O)OCc1ccccc1` (stereo partly drawn) [EP-193, N-(3-ethoxycarbonyloxirane-2-carbonyl)-L-aspartic acid dibenzyl ester], for which the “ID50 (amount of inhibitor for 50% inhibition)” value is given as 20.50 γ.

For `CCOC(=O)C1OC1C(=O)N[C@@H](CC(N)=O)C(=O)OCc1ccccc1` (stereo partly drawn) [EP-194, N-(3-ethoxycarbonyloxirane-2-carbonyl)-L-asparagine benzyl ester], the “ID50 (amount of inhibitor for 50% inhibition)” value was 22.60 γ. Turning to `CCOC(=O)[C@H](CCCCNC(=O)OCc1ccccc1)NC(=O)C1OC1C(=O)[O-].[K+]` (stereo partly drawn) [EP-195, N^α -(3-carboxyoxirane-2-carbonyl)-N^ε -carbobenzoxy-L-lysine ethyl ester potassium salt], the “ID50 (amount of inhibitor for 50% inhibition)” value is reported as 0.43 γ. In the case of `O=C(NCCC[C@H](NC(=O)C1OC1C(=O)O)C(=O)OCc1ccccc1)OCc1ccccc1` (stereo partly drawn) [EP-196, N^α -(3-carboxyoxiane-2-carbonyl)-N^δ -carbobenzoxy-L-ornithine benzyl ester potassium salt], the “ID50 (amount of inhibitor for 50% inhibition)” value is on record as 0.11 γ. With `O=C(NCCCC[C@H](NC(=O)C1OC1C(=O)[O-])C(=O)OCc1ccccc1)OCc1ccccc1.[K+]` (stereo partly drawn) [EP-197, N^α -(3-carboxyoxirane-2-carbonyl)-N^ε -carbobenzoxy-L-lysine benzyl ester potassium salt] the figure was 0.98 γ.
